In PMC8185074, “Anchor extension: a structure-guided approach to design cyclic peptides targeting enzyme active sites” (Nature Communications, 2021):
Peptide text beside a SMILES is read from it.

What was measured:
HDAC2 = molecular target: T1, HDAC2 (Homo sapiens, UniProt Q92769); assay: HDAC2 inhibition, full IC50 measurement (Reaction Biology; fluorogenic p53 peptide RHKK(Ac)AMC); assay type: biochemical
T1 construct: purchased Reaction Biology Corporation (assay run by the CRO)
In short: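 Deacetylation of 50 μM RHKK(Ac)AMC is measured after 1 h at 30 °C in pH 8.0 Tris buffer (1% DMSO, 1 mg/ml BSA). Developer ends the reaction; the post-plateau 360/460 nm signal is fitted to IC50, averaging replicate measurements.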

HDAC8 = molecular target: T2, HDAC8 (Homo sapiens, UniProt Q9BY41); assay: HDAC8 inhibition, full IC50 measurement (Reaction Biology; fluorogenic p53 peptide RHKK(Ac)AMC); assay type: biochemical; settings: t1/t2 replicates
T2 construct: purchased Reaction Biology Corporation (assay run by the CRO)
T2 sequence (Q9BY41 1-377): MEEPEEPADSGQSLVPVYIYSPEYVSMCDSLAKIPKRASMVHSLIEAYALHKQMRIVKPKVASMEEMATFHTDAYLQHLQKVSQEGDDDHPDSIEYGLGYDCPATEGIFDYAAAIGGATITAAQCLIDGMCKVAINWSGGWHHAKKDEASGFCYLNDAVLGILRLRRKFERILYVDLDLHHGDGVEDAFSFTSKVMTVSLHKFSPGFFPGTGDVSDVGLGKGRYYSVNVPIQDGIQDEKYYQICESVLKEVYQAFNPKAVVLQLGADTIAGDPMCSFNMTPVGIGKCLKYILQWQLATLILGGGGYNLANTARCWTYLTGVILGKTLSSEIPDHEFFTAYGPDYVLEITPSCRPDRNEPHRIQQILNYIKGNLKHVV
Procedure: The assay was performed using 50 μM fluorogenic peptide from p53 residues 379-382 [RHKK(Ac)AMC] in a base reaction buffer of 50 mM Tris-HCl at pH 8.0, 137 mM NaCl, 2.7 mM KCl, 1 mM MgCl2, and freshly added 1 mg/ml BSA and 1% DMSO. Peptides were first dissolved in DMSO and then added to the reaction mixture with the enzyme using acoustic technique, enough to reach the desired concentration for that assay point. Peptide concentrations were calculated based on mass of lyophilized peptide and its molecular weight. The substrate was then added and incubated for 1 hour at 30 °C in a sealed container. After the incubation, developer was added to stop the reaction and develop color. Kinetic measurements were then performed for 20 min with Envision with 5 min intervals (Ex/Em = 360/460 nm). The endpoint after plateau was taken for IC50 measurement.
In cases where duplicate measures are used, average data is reported in the main text or Supplementary Tables.

T1 sequence (Q92769 whole entry): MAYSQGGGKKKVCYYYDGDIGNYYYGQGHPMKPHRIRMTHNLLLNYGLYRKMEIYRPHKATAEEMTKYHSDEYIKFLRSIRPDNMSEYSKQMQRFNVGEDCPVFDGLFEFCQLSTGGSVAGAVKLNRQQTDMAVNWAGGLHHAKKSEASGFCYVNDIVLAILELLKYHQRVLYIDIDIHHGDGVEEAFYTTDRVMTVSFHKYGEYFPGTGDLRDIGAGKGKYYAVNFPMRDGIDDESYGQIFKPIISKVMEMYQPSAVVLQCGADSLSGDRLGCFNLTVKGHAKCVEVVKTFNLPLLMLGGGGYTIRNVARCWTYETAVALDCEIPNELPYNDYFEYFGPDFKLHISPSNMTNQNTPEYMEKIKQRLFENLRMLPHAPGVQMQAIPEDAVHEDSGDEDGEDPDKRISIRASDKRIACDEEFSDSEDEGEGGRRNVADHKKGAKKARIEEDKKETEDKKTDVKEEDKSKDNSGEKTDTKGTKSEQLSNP

## CSCC[C@H]1NC(=O)[C@@H](CO)NC(=O)[C@H](CC(N)=O)NC(=O)[C@H](CC(=O)O)NC(=O)[C@@H]([C@H](C)O)NC(=O)[C@H](Cc2c[nH]c3ccccc23)NC(=O)[C@H](CCCCCS)NC(=O)[C@H](CCCCN)NC(=O)[C@@H](CC(=O)O)NC1=O [des2.1.1, SHA-Trp-dThr-Asp-Asn-dSer-dMet-dAsp-Lys] (HELM PEPTIDE1{D.N.[dS].[dM].[dD].K.[O=C([C@H](CCCCCS)N[*:1])[*:2]].W.[dT]}$PEPTIDE1,PEPTIDE1,1:R1-9:R2$$$V2.0)
HDAC2; Conc. 1.00E-05 M, t1
  HDAC2 activity raw data (signal): -452
HDAC2; Conc. 1.00E-05 M, t2
  HDAC2 activity raw data (signal): -1036
HDAC2; Conc. 1.11E-06 M, t1
  HDAC2 activity raw data (signal): 33890
HDAC2; Conc. 1.11E-06 M, t2
  HDAC2 activity raw data (signal): 38279
HDAC2; Conc. 1.23E-07 M, t1
  HDAC2 activity raw data (signal): 186095
HDAC2; Conc. 1.23E-07 M, t2
  HDAC2 activity raw data (signal): 182790
HDAC2; Conc. 1.37E-08 M, t1
  HDAC2 activity raw data (signal): 599694
HDAC2; Conc. 1.37E-08 M, t2
  HDAC2 activity raw data (signal): 552663
HDAC2; Conc. 1.52E-09 M, t1
  HDAC2 activity raw data (signal): 969892
HDAC2; Conc. 1.52E-09 M, t2
  HDAC2 activity raw data (signal): 886346
HDAC2; Conc. 3.33E-06 M, t1
  HDAC2 activity raw data (signal): 19780
HDAC2; Conc. 3.33E-06 M, t2
  HDAC2 activity raw data (signal): 13124
HDAC2; Conc. 3.70E-07 M, t1
  HDAC2 activity raw data (signal): 88233
HDAC2; Conc. 3.70E-07 M, t2
  HDAC2 activity raw data (signal): 84596
HDAC2; Conc. 4.12E-08 M, t1
  HDAC2 activity raw data (signal): 374430
HDAC2; Conc. 4.12E-08 M, t2
  HDAC2 activity raw data (signal): 356371
HDAC2; Conc. 4.57E-09 M, t1
  HDAC2 activity raw data (signal): 827090
HDAC2; Conc. 4.57E-09 M, t2
  HDAC2 activity raw data (signal): 782443
HDAC2; Conc. 5.08E-10 M, t1
  HDAC2 activity raw data (signal): 1119506
HDAC2; Conc. 5.08E-10 M, t2
  HDAC2 activity raw data (signal): 1036443
HDAC2; figure legends, Supp. Table 1, read-out: HDAC2 IC50
  IC50: 0.0163 µM
HDAC8; peptide conc. 1.00E-05 M, listed as des2.1.1_t1
  HDAC8 activity raw data (signal): 964380
HDAC8; peptide conc. 1.00E-05 M, listed as des2.1.1_t2
  HDAC8 activity raw data (signal): 738285
HDAC8; peptide conc. 1.11E-06 M, listed as des2.1.1_t1
  HDAC8 activity raw data (signal): 17568030
HDAC8; peptide conc. 1.11E-06 M, listed as des2.1.1_t2
  HDAC8 activity raw data (signal): 18194235
HDAC8; peptide conc. 1.23E-07 M, listed as des2.1.1_t1
  HDAC8 activity raw data (signal): 56084359
HDAC8; peptide conc. 1.23E-07 M, listed as des2.1.1_t2
  HDAC8 activity raw data (signal): 53955732
HDAC8; peptide conc. 1.37E-08 M, listed as des2.1.1_t1
  HDAC8 activity raw data (signal): 68600267
HDAC8; peptide conc. 1.37E-08 M, listed as des2.1.1_t2
  HDAC8 activity raw data (signal): 68709597
HDAC8; peptide conc. 1.52E-09 M, listed as des2.1.1_t1
  HDAC8 activity raw data (signal): 73629892
HDAC8; peptide conc. 1.52E-09 M, listed as des2.1.1_t2
  HDAC8 activity raw data (signal): 68940487
HDAC8; peptide conc. 3.33E-06 M, listed as des2.1.1_t1
  HDAC8 activity raw data (signal): 6524465
HDAC8; peptide conc. 3.33E-06 M, listed as des2.1.1_t2
  HDAC8 activity raw data (signal): 5933628
HDAC8; peptide conc. 3.70E-07 M, listed as des2.1.1_t1
  HDAC8 activity raw data (signal): 36548840
HDAC8; peptide conc. 3.70E-07 M, listed as des2.1.1_t2
  HDAC8 activity raw data (signal): 38514186
HDAC8; peptide conc. 4.12E-08 M, listed as des2.1.1_t1
  HDAC8 activity raw data (signal): 62692187
HDAC8; peptide conc. 4.12E-08 M, listed as des2.1.1_t2
  HDAC8 activity raw data (signal): 60959948
HDAC8; peptide conc. 4.57E-09 M, listed as des2.1.1_t1
  HDAC8 activity raw data (signal): 71596500
HDAC8; peptide conc. 4.57E-09 M, listed as des2.1.1_t2
  HDAC8 activity raw data (signal): 73045422
HDAC8; peptide conc. 5.08E-10 M, listed as des2.1.1_t1
  HDAC8 activity raw data (signal): 76849547
HDAC8; peptide conc. 5.08E-10 M, listed as des2.1.1_t2
  HDAC8 activity raw data (signal): 76232042

## CC(C)C[C@H]1NC(=O)[C@H](Cc2c[nH]c3ccccc23)NC(=O)[C@H](CCCCCS)NC(=O)[C@@H](Cc2ccc(O)cc2)NC(=O)[C@@H](C(C)C)NC(=O)[C@H](Cc2c[nH]cn2)NC(=O)CNC(=O)CNC(=O)[C@@H](CO)NC1=O [des2.2.0, SHA-Trp-dLeu-dSer-Gly-Gly-His-dVal-dTyr] (HELM PEPTIDE1{G.G.H.[dV].[dY].[O=C([C@H](CCCCCS)N[*:1])[*:2]].W.[dL].[dS]}$PEPTIDE1,PEPTIDE1,1:R1-9:R2$$$V2.0)
HDAC2; Conc. 1.00E-05 M, t1
  HDAC2 activity raw data (signal): 686926
HDAC2; Conc. 1.00E-05 M, t2
  HDAC2 activity raw data (signal): 755168
HDAC2; Conc. 1.11E-06 M, t1
  HDAC2 activity raw data (signal): 808545
HDAC2; Conc. 1.11E-06 M, t2
  HDAC2 activity raw data (signal): 1100762
HDAC2; Conc. 1.23E-07 M, t1
  HDAC2 activity raw data (signal): 837329
HDAC2; Conc. 1.23E-07 M, t2
  HDAC2 activity raw data (signal): 1005687
HDAC2; Conc. 1.37E-08 M, t1
  HDAC2 activity raw data (signal): 715440
HDAC2; Conc. 1.37E-08 M, t2
  HDAC2 activity raw data (signal): 821926
HDAC2; Conc. 1.52E-09 M, t1
  HDAC2 activity raw data (signal): 554743
HDAC2; Conc. 1.52E-09 M, t2
  HDAC2 activity raw data (signal): 656599
HDAC2; Conc. 3.33E-06 M, t1
  HDAC2 activity raw data (signal): 690169
HDAC2; Conc. 3.33E-06 M, t2
  HDAC2 activity raw data (signal): 996724
HDAC2; Conc. 3.70E-07 M, t1
  HDAC2 activity raw data (signal): 822571
HDAC2; Conc. 3.70E-07 M, t2
  HDAC2 activity raw data (signal): 1061380
HDAC2; Conc. 4.12E-08 M, t1
  HDAC2 activity raw data (signal): 840443
HDAC2; Conc. 4.12E-08 M, t2
  HDAC2 activity raw data (signal): 955487
HDAC2; Conc. 4.57E-09 M, t1
  HDAC2 activity raw data (signal): 679123
HDAC2; Conc. 4.57E-09 M, t2
  HDAC2 activity raw data (signal): 728514
HDAC2; Conc. 5.08E-10 M, t1
  HDAC2 activity raw data (signal): 632244
HDAC2; Conc. 5.08E-10 M, t2
  HDAC2 activity raw data (signal): 668167
HDAC8; peptide conc. 1.00E-05 M, listed as des2.2.0_t1
  HDAC8 activity raw data (signal): 365553
HDAC8; peptide conc. 1.00E-05 M, listed as des2.2.0_t2
  HDAC8 activity raw data (signal): 330727
HDAC8; peptide conc. 1.11E-06 M, listed as des2.2.0_t1
  HDAC8 activity raw data (signal): 850929
HDAC8; peptide conc. 1.11E-06 M, listed as des2.2.0_t2
  HDAC8 activity raw data (signal): 824009
HDAC8; peptide conc. 1.23E-07 M, listed as des2.2.0_t1
  HDAC8 activity raw data (signal): 979654
HDAC8; peptide conc. 1.23E-07 M, listed as des2.2.0_t2
  HDAC8 activity raw data (signal): 1006503
HDAC8; peptide conc. 1.37E-08 M, listed as des2.2.0_t1
  HDAC8 activity raw data (signal): 1072008
HDAC8; peptide conc. 1.37E-08 M, listed as des2.2.0_t2
  HDAC8 activity raw data (signal): 1101244
HDAC8; peptide conc. 1.52E-09 M, listed as des2.2.0_t1
  HDAC8 activity raw data (signal): 927307
HDAC8; peptide conc. 1.52E-09 M, listed as des2.2.0_t2
  HDAC8 activity raw data (signal): 984830
HDAC8; peptide conc. 3.33E-06 M, listed as des2.2.0_t1
  HDAC8 activity raw data (signal): 572630
HDAC8; peptide conc. 3.33E-06 M, listed as des2.2.0_t2
  HDAC8 activity raw data (signal): 528648
HDAC8; peptide conc. 3.70E-07 M, listed as des2.2.0_t1
  HDAC8 activity raw data (signal): 865883
HDAC8; peptide conc. 3.70E-07 M, listed as des2.2.0_t2
  HDAC8 activity raw data (signal): 851036
HDAC8; peptide conc. 4.12E-08 M, listed as des2.2.0_t1
  HDAC8 activity raw data (signal): 959123
HDAC8; peptide conc. 4.12E-08 M, listed as des2.2.0_t2
  HDAC8 activity raw data (signal): 1003485
HDAC8; peptide conc. 4.57E-09 M, listed as des2.2.0_t1
  HDAC8 activity raw data (signal): 938538
HDAC8; peptide conc. 4.57E-09 M, listed as des2.2.0_t2
  HDAC8 activity raw data (signal): 927098
HDAC8; peptide conc. 5.08E-10 M, listed as des2.2.0_t1
  HDAC8 activity raw data (signal): 862623
HDAC8; peptide conc. 5.08E-10 M, listed as des2.2.0_t2
  HDAC8 activity raw data (signal): 898356
